Counter-ions that a name gives are not always drawn.

By IC50 is commonly meant the concentration that inhibits the measured activity by half. The low end stands for greater potency in that assay, the high end for weaker potency in that assay.

One test deals with MCF7. The experiment in a line: Inhibition of estrogen-induced proliferation in human MCF-7 breast cancer cells. It counts as functional, cell-based.
The next test relates to Rattus norvegicus. The experiment in a line: Percent reduction in total serum Cholesterol level at 1.0 mg/kg oral dose. It counts as functional.

Regarding `Oc1ccc(-c2sc3cc(O)ccc3c2Cc2ccc(OCCN3CCCCC3)cc2)cc1`, it took 0.19 nM to reach half-maximal inhibition with MCF7 (IC50).

`C[C@]12CC[C@@H]3c4ccc(O)cc4C[C@@H](CCCCCCCCC[S+]([O-])CCCC(F)(F)C(F)(F)F)[C@H]3[C@@H]1CC[C@@H]2O` (stereo partly drawn) [FULVESTRANT] had an IC50 with MCF7 of 0.49 nM. This IC50 is about 2.6-fold higher than that of the molecule before.

As for `Oc1ccc(-c2sc3cc(O)ccc3c2Nc2ccc(OCCN3CCCCC3)cc2)cc1`, in the test on MCF7, half-maximal inhibition (IC50) required 0.1 nM.

For `CC/C(=C(\c1ccccc1)c1ccc(OCCN(C)C)cc1)c1ccccc1` [TAMOXIFEN], 481 nM corresponded to half-maximal inhibition in the test with MCF7 (IC50).

In the test on Rattus norvegicus, `Cl.Oc1ccc(-c2sc3cc(O)ccc3c2Oc2ccc(OCCN3CCCCC3)cc2)cc1` came in with a Reduction of 45%. In the test on MCF7, the IC50 turned out to be 0.05 nM.

On to `O=C(c1ccc(OCCN2CCCCC2)cc1)c1c(-c2ccc(O)cc2)sc2cc(O)ccc12` [RALOXIFENE HYDROCHLORIDE], for which 0.4 nM corresponded to half-maximal inhibition in the test with MCF7 (IC50).

With `Oc1ccc(-c2sc3cc(O)ccc3c2Sc2ccc(OCCN3CCCCC3)cc2)cc1`, it took 0.28 nM to reach half-maximal inhibition with MCF7 (IC50).

Values taken from ChEMBL document CHEMBL1130021 (J Med Chem, 1997).
